# Reference: US9884881B2, “Chelates of lead (II) and bismuth (III) based on trans-di-N-picolinate tetraazacycloalkanes” (CNRS—CENTRE NATIONAL DE LA RECHERCHE SCIENTIFIQUE, priority 2013, dated 2018)
# How the values were obtained:
# [1] = In vitro stability of the radio-labeled chelate in human plasma; type: in vitro ADME
# Description: The stability of the serum and of the in vitro chelate were also studied by TLC and by HPLC.
# For the stability of the serum, 200 μL of radiomarked Me-DODPA^2− solution (activity: 1 MBq, radiochemical purity: 95%) were mixed with 800 μL of human plasma. The plasma stability values were controlled in comparison with free ^213Bi, after 1 and 2 hours of incubation (about 1 and 2 half-lives) at ambient temperature by direct gel permeation chromatography on plasma in a PD-10 column and by TLC analysis of this supernatant after precipitation of the plasma proteins with ammonium sulfate. The TLC analysis was performed under the same conditions as earlier. After precipitation, the activity in the precipitate was measured (78.8%) as also the activity in the supernatant ([…]).
# [2] = pM value (free lead concentration) of lead (II) chelates; type: physicochemical; conditions: pH 7.4, Pb(II) 10 μM, ligand concentration ten times greater
# Description: (§1) For the DODPA or Me-DODPA chelates with lead (II), the thermodynamic stability constant pK was determined directly by potentiometery at 25° C., for a concentration of 0.10 M in KNO3. […] The pM values corresponding to the non-chelated lead concentrations were therefore computed for the DODPA or Me-DODPA chelates with lead (II) and compared with the value known for the DOTA chelate with lead (II). This value pM is defined by the negative logarithm of the free metal concentration at a pH of 7.4 and with a concentration of Pb(II) of 10 μM and a ligand concentration that is ten times greater. A pM value of 12.3 was measured for the chelate of DODPA and lead (II) and 14.9 for the chelate of Me-DODPA and lead (II) while the known pM value for the complex of DOTA and lead (II) is 18.4
# [3] = Kinetics of dissociation of complexes in DCl 0.1 M by NMR; type: physicochemical
# Description: The kinetics of dissociation of these complexes were also studied by NMR. In this context, the [Bi(Me-DODPA)](NO3) and [Pb(Me-DODPA)] complexes were dissolved in DCl 0.1 M.
# [4] = Thermodynamic stability constant pK of lead (II) chelates by potentiometry; type: physicochemical; conditions: 25° C., 0.10 M in KNO3
# Description: as §1
# [5] = 1H NMR competition with DOTA for complexation of bismuth (III); type: physicochemical
# Description: As regards the chelate of Me-DODPA and bismuth (III) or DODPA and bismuth (III), the thermodynamic stability constants were evaluated by NMR ^1H (in a concentration of 10^−2 M) in studying the competitivity of the complexation of bismuth (III) with Me-DODPA or DODPA and DOTA. Indeed, such a constant cannot be measured directly by potentiometery for the bismuth chelates
# A mole equivalent of […] was added to an equimolar solution of DODPA and DOTA at pH=1. The pH was then adjusted to 3 and an NMR spectrum was recorded. After five days at 25° C., it was observed that about 40% of the DODPA had been complexated with bismuth (III). […] Chem., 2003, 42, 2342-2349, is about 30.3.
# [6] = Kinetics of complexation with bismuth (III) by UV/Vis spectroscopy; type: physicochemical; conditions: 1.65×10^-4 M each, stirring at ambient temperature
# Description: (§2) The kinetics of complexation of Me-DODPA chelates with bismuth (III) and lead (II) were studied by UV/Vis spectroscopy.
# An aqueous solution of Bi(NO3)3.5H2O (1.65×10^−4 M) was added to an aqueous solution of Me-DODPA (1.65×10^−4M). The UV/Vis spectra were recorded at different reaction times.
# [7] = Kinetics of complexation with lead (II) by UV/Vis spectroscopy; type: physicochemical; conditions: equimolar 0.74×10^-4 M, pH=7
# Description: as §2
# Referring to FIG. 4, a total complexation of Me-DODPA with lead (II) was observed ten minutes after the equimolar mixing (0.74×10^−4 M) of an aqueous solution of PbCl2 and an aqueous solution of Me-DODPA at pH=7.
# [8] = human plasma, ammonium sulfate precipitation
compound,measurement,setting,value
CN1CCN(Cc2cccc(C(=O)[O-])n2)CCN(C)CCN(Cc2cccc(C(=O)[O-])n2)CC1.CN1CCN(Cc2cccc(C(=O)[O-])n2)CCN(C)CCN(Cc2cccc(C(=O)[O-])n2)CC1.CN1CCN(Cc2cccc(C(=O)[O-])n2)CCN(C)CCN(Cc2cccc(C(=O)[O-])n2)CC1.[213Bi+3].[213Bi+3] [(^213Bi(Me-DODPA))^+],stability in human plasma,[1]; 1 and 2 hours of incubation at ambient temperature,stable in human plasma for at least two half-lives
same,"radioactivity of the supernatant detected at Fr=0.5 (intact chelate), TLC",[1]; human plasma supernatant after protein precipitation,more than 90%
same,activity in the precipitate after precipitation of plasma proteins,[1]; [8],78.8%
same,activity in the supernatant after precipitation of plasma proteins,[1]; [8],3.8%
CN1CCN(Cc2cccc(C(=O)[O-])n2)CCN(C)CCN(Cc2cccc(C(=O)[O-])n2)CC1.[Pb+2] [[Pb(Me-DODPA)]],pM value (negative logarithm of the free metal concentration),[2],14.9
same,dissociation of the complex,[3],total dissociation of the complex [Pb(Me-DODPA)] was observed at the end of seven days
same,thermodynamic stability constant pK,[4],18.74
O=C(O)c1cccc(CN2CCNCCN(Cc3cccc(C(=O)O)n3)CCNCC2)n1 [DODPA],ligand complexated with bismuth (III) in competition with DOTA,"[5]; equimolar ligand and DOTA, one mole equivalent Bi, pH 3, five days at 25° C., 10^-2 M",about 40%
O=C([O-])c1cccc(CN2CCNCCN(Cc3cccc(C(=O)[O-])n3)CCNCC2)n1.[Pb+2] [Pb(DODPA)],pM value (negative logarithm of the free metal concentration),[2],12.3
same,thermodynamic stability constant pK,[4],17.09
CN1CCN(Cc2cccc(C(=O)O)n2)CCN(C)CCN(Cc2cccc(C(=O)O)n2)CC1 [Me-DODPA],time to total complexation with bismuth (III),[6],30 min
same,bismuth (III) complexated in equimolar mixture of ligand and DOTA,[5]; equimolar mixture of Me-DODPA and DOTA,the totality of the bismuth (III) was complexated by the Me-DODPA
same,time to total complexation with lead (II),[7],ten
